# From paper PMC3961306, “Comparison of the Cancer Gene Targeting and Biochemical Selectivities of All Targeted Kinase Inhibitors Approved for Clinical Use” (PLoS ONE, 2014)
# How the values were obtained:
# Assay in all cases: Kinase profiling in a biochemical assay panel (mobility shift assays and ELISA), %-inhibition at 1 μM; selectivity entropy
# [1] = biological target: T1, panel of more than 300 wild-type and mutant kinases (313 kinase panel) (Homo sapiens, UniProt Q13237)
# T1 sequence (Q13237 1-762): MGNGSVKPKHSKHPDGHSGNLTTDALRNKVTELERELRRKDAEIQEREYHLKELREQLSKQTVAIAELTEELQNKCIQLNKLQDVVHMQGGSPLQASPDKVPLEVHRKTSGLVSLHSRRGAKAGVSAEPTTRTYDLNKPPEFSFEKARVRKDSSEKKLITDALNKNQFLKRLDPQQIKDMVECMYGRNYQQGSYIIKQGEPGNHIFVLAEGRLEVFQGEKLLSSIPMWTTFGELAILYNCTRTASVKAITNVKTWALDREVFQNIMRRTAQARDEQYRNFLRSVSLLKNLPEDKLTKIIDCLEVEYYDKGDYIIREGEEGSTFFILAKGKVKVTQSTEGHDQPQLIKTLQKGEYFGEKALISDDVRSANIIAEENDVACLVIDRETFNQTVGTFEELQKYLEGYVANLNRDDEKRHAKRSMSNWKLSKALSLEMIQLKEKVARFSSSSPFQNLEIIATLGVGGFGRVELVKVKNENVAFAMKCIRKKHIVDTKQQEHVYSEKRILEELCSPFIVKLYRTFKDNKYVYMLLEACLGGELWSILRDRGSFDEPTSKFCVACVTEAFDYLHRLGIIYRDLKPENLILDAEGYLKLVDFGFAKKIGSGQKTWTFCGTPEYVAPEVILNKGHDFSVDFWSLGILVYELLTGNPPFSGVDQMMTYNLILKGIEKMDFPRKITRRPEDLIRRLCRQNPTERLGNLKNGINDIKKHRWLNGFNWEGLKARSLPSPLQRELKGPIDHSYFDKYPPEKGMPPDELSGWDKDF
# [2] = biological target: panel of more than 300 wild-type and mutant kinases (313 kinase panel) (Homo sapiens, UniProt P07948)
# [3] = biological target: panel of more than 300 wild-type and mutant kinases (313 kinase panel) (Homo sapiens, UniProt P51451)
# Sequence of panel of more than 300 wild-type and mutant kinases (313 kinase panel) (Homo sapiens, UniProt P51451) (P51451 whole entry, change not shown): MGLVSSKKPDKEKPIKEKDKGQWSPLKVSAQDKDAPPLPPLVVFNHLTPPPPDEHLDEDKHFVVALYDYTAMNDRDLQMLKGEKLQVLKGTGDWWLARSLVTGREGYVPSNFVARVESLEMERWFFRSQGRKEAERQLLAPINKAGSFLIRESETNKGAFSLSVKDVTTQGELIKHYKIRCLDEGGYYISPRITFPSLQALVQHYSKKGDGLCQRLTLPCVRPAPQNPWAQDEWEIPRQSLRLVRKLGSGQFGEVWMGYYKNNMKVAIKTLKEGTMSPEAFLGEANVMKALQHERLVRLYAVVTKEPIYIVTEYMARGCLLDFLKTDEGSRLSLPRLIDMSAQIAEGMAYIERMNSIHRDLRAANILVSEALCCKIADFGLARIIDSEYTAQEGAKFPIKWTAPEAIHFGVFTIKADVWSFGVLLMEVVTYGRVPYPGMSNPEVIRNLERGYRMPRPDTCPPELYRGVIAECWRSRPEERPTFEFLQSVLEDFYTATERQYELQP
# [4] = biological target: panel of more than 300 wild-type and mutant kinases (313 kinase panel) (Homo sapiens, UniProt Q07912)
# Sequence of panel of more than 300 wild-type and mutant kinases (313 kinase panel) (Homo sapiens, UniProt Q07912) (Q07912 whole entry, change not shown): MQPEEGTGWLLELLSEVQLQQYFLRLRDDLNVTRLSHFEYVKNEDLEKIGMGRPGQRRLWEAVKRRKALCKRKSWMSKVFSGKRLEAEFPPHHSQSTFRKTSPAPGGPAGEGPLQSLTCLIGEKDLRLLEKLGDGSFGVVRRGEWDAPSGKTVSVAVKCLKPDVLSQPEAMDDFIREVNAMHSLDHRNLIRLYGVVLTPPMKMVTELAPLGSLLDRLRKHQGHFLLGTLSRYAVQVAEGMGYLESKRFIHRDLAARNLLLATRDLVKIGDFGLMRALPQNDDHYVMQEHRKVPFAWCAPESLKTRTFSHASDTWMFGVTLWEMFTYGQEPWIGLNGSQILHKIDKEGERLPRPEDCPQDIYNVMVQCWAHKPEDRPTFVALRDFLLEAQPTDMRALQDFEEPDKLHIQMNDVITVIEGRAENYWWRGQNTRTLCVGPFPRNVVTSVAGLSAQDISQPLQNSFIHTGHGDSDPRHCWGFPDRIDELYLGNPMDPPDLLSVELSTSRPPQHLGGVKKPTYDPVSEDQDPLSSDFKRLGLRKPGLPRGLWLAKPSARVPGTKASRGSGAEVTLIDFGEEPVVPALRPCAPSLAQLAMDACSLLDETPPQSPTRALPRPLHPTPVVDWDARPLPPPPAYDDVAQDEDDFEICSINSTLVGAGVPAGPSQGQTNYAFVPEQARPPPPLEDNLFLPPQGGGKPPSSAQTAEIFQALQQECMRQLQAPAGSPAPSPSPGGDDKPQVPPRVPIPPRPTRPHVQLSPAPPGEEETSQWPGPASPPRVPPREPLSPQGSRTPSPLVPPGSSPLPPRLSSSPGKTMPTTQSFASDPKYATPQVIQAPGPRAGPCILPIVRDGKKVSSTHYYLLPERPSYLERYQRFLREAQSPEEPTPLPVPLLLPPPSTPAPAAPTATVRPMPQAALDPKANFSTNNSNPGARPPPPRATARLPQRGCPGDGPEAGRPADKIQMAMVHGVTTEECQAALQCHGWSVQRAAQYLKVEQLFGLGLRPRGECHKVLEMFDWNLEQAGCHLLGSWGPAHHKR
# [5] = biological target: panel of more than 300 wild-type and mutant kinases (313 kinase panel) (Homo sapiens, UniProt P04629)
# [6] = biological target: panel of more than 300 wild-type and mutant kinases (313 kinase panel) (Homo sapiens, UniProt P28482)
# [7] = biological target: panel of more than 300 wild-type and mutant kinases (313 kinase panel) (Homo sapiens, UniProt P48730)
# [8] = biological target: panel of more than 300 wild-type and mutant kinases (313 kinase panel) (Homo sapiens, UniProt P53355)
# [9] = biological target: T2, panel of more than 300 wild-type and mutant kinases (313 kinase panel) (Homo sapiens, UniProt Q96PY6)
# T2 sequence (Q96PY6 1-1258): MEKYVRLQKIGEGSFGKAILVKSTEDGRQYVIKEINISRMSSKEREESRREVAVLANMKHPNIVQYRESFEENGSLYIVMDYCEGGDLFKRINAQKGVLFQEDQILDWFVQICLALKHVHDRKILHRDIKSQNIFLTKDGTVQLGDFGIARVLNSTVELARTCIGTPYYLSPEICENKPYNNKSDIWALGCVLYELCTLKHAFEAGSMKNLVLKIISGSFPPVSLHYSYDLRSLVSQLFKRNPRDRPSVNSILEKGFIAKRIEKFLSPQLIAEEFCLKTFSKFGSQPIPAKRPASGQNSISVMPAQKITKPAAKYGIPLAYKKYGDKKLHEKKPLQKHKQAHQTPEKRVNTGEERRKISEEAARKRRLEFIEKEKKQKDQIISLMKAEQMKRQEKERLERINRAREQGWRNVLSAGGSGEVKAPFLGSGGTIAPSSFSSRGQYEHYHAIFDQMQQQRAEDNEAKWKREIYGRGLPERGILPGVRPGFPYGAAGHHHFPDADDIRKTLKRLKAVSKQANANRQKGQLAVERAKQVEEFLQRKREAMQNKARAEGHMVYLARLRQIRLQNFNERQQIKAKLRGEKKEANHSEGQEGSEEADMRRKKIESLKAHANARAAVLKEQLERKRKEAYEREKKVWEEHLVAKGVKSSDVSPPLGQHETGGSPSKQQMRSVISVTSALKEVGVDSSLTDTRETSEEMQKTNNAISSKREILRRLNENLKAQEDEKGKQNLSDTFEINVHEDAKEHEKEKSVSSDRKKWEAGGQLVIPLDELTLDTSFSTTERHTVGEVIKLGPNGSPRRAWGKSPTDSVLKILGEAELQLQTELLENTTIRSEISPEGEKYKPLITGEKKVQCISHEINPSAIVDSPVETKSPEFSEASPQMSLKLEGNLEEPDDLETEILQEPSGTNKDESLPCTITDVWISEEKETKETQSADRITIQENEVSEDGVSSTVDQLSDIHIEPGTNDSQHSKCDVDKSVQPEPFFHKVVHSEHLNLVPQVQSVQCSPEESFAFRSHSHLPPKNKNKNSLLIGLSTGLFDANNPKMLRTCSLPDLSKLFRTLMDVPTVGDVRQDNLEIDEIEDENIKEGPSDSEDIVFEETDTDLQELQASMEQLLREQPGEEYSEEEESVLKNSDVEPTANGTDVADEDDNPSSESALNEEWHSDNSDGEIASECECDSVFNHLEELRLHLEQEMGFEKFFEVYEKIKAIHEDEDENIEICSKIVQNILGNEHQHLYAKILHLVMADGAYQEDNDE
SMILES,"%-inhibition, CGK2 ([1]; kinase CGK2, 1 μM compound) [%]","%-inhibition of LYNa ([2]; kinase LYNa, compound at 1 μM) [%]","%-inhibition, BLK ([3]; kinase BLK, 1 μM compound) [%]","%-inhibition, ACK ([4]; kinase ACK, 1 μM compound) [%]","%-inhibition of TRKA ([5]; kinase TRKA, 1 μM) [%]","%-inhibition of Erk2 ([6]; kinase Erk2, compound at 1 μM) [%]","%-inhibition, CK1δ ([7]; kinase CK1δ, 1 μM compound) [%]","%-inhibition of DAPK1 ([8]; kinase DAPK1, compound at 1 μM) [%]","%-inhibition of NEK1 ([9]; kinase NEK1, 1 μM) [%]",%-inhibition of Erk2 ([6]; 1 µM) [%],"%-inhibition, CK1δ ([7]; 1 µM) [%]","%-inhibition, CGK2 ([1]; 1 µM) [%]",%-inhibition of LYNa ([2]; 1 µM) [%],"%-inhibition, BLK ([3]; 1 µM) [%]","%-inhibition, ACK ([4]; 1 µM) [%]",%-inhibition of DAPK1 ([8]; 1 µM) [%],%-inhibition of TRKA ([5]; 1 µM) [%],%-inhibition of NEK1 ([9]; 1 µM) [%]
COc1cc(Nc2c(C#N)cnc3cc(OCCCN4CCN(C)CC4)c(OC)cc23)c(Cl)cc1Cl [bosutinib],-0.53,93,84,97,88,–,–,–,–,–,–,–,–,–,–,–,–,–
COc1cc2nccc(Oc3ccc(NC(=O)C4(C(=O)Nc5ccc(F)cc5)CC4)cc3)c2cc1OC [cabozantinib],-2.55,100,100,30,100,-8,0.0601,-10,-4.23,–,–,–,–,–,–,–,–,–
C[C@@H](Oc1cc(-c2cnn(C3CCNCC3)c2)cnc1N)c1c(Cl)ccc(F)c1Cl [crizotinib],-0.915,42,–,–,103,-4.58,9,-4,2.24,–,–,–,–,–,–,–,–,–
CC(C)(C)c1nc(-c2cccc(NS(=O)(=O)c3c(F)cccc3F)c2F)c(-c2ccnc(N)n2)s1 [dabrafenib],-1.38,–,80,24,–,-8,8.51,-0.54,24,–,–,–,–,–,–,–,–,–
Cc1nc(Nc2ncc(C(=O)Nc3c(C)cccc3Cl)s2)cc(N2CCN(CCO)CC2)n1 [dasatinib],-6,–,103,–,–,–,–,–,–,–,–,–,–,–,–,–,–,–
C#Cc1cccc(Nc2ncnc3cc(OCCOC)c(OCCOC)cc23)c1 [erlotinib],–,–,–,–,–,–,–,–,–,-2,-4,-1.7,64,31,37,1.08,14,5
CO[C@H]1C[C@@H]2CC[C@@H](C)[C@@](O)(O2)C(=O)C(=O)N2CCCC[C@H]2C(=O)O[C@H]([C@H](C)C[C@@H]2CC[C@@H](OCCO)[C@H](OC)C2)CC(=O)[C@H](C)/C=C(\C)[C@@H](O)[C@@H](OC)C(=O)[C@H](C)C[C@H](C)/C=C/C=C/C=C/1C [everolimus],-4.58,-1.27,-7,-4.62,-3.53,-7.44,-4.27,-15,-7,–,–,–,–,–,–,–,–,–
O=S(=O)(c1cccc2cnccc12)N1CCCNCC1 [fasudil],46,-1.61,-2.48,0.581,-2.44,-7,-3.4,10,-6.36,–,–,–,–,–,–,–,–,–
CS(=O)(=O)CCNCc1ccc(-c2ccc3ncnc(Nc4ccc(OCc5cccc(F)c5)c(Cl)c4)c3c2)o1 [lapatinib],-9,–,24,–,5.64,-7,–,–,–,–,-3.34,–,9,–,2.36,-6,–,1.5
Cc1cn(-c2cc(NC(=O)c3ccc(C)c(Nc4nccc(-c5cccnc5)n4)c3)cc(C(F)(F)F)c2)cn1 [nilotinib],12,85,29,13,–,1.49,-17,-11,-23,–,–,–,–,–,–,–,41,–
Cc1ccc(Nc2nccc(N(C)c3ccc4c(C)n(C)nc4c3)n2)cc1S(N)(=O)=O [pazopanib],-1,84,62,13,–,-0.636,1.13,0.316,2.41,–,–,–,–,–,–,–,–,–
Cc1ccc(C(=O)Nc2ccc(CN3CCN(C)CC3)c(C(F)(F)F)c2)cc1C#Cc1cnc2cccnn12 [ponatinib],12,100,97,99,101,–,–,–,78,–,–,–,–,–,–,–,–,–
N#CC[C@H](C1CCCC1)n1cc(-c2ncnc3[nH]ccc23)cn1 [ruxolitinib],–,13,-1,93,92,-5.62,12,71,-4,–,–,–,–,–,–,–,–,–
CCN(CC)CCNC(=O)c1c(C)[nH]c(/C=C2\C(=O)Nc3ccc(F)cc32)c1C [sunitinib],–,–,96,–,98,–,32,–,–,–,–,–,–,–,–,–,–,–
